The values that follow are results of earlier work, collected in patent US11512089B2, “Substituted [1,2,4]triazolo[3,4-a]phthalazines as modulators of GABAA receptor activity” (SHANGHAI SIMR BIOTECHNOLOGY CO., LTD, priority 2018, dated 2022).

Molecules are shown by their SMILES.

For the series, the system named is α5-GABAA receptor. The settings on record: cited from earlier work.

`Cc1cc(-c2nncc3c(C(C)(C)C)c(OCc4ncnn4C)nn23)no1` [MRK016, 3-tert-butyl-7-(5-methylisoxazol-3-yl)-2-(1-methyl-1H-1,2,4-triazol-5-ylmethoxy)pyrazolo[1,5-d][1,2,4]triazine]: the “block of the binding of (^3H)R0-15-1788 in brain” value is “efficiently block”.
